Assay results reported in US9260382B2, “Methods of reducing virulence in bacteria” (priority 2010, dated 2016).
“Also recorded” adds a separate entry of the source.

Columns and labels:
hrpA promoter (T3SS) [1] = assay: GFP reporter plasmid phrpA, flow cytometry (FACS) of hrpA promoter activity; type: cell-based, Dickeya dadantii 3937; details: for mean fluorescence intensity of GFP, hrpA expression: D. dadantii 3937 (phrpA), MM + 100 μM compound; for inhibitory activity on T3SS gene (hrpA) expression, in words: D. dadantii 3937, reporter plasmid phrpA, 100 μM; for minimal effective concentration: Dickeya dadantii, read-out: minimal inhibitory concentration on hrpA expression (concentration showing inhibitory effect)
Description: FACS analysis of promoter activity of dspE, hrpA, hrpL, hrpN, and hrpS was carried out as described (Peng et al., 2006). Briefly, the wild-type Ech3937 and the mutant strains carrying the promoter reporter plasmid were grown on LB broth at 28° C. overnight and transferred to appropriate media. For FACS analysis, samples were collected by centrifugation, washed with 1× phosphate buffer saline (PBS) at 13,000 rpm for 1 min, and re-suspended in 1×PBS to ca 10^6 CFU/ml prior to being run in a FACS Calibur flow cytometer (BD Biosciences, CA). Three replicates were performed for each treatment.
To identify potential compounds that repress activation of T3SS, analogs and isomers of TCA and intermediates of salicylic acid and phenypropanoid biosynthesis pathways in plants were further screened for their effect on Ech3937 hrpA expression by flow cytometry (Table 9). A green fluorescent protein (GFP) reporter plasmid phrpA (pProbe-AT derivative with PCR fragment containing hrpA promoter region) was constructed, resulting in a transcriptional fusion of hrpA promoter with GFP gene. Bacterial cells containing phrpA plasmid were grown in MM supplemented with 0.1 mM of each compound. GFP intensity, which is a measurement of hrpA promoter activity, was measured by flow cytometry.
hrpA encodes the T3SS pilus required for protein translocation into plant cells. To test for an inhibitory effect on T3SS hrpA expression, the reporter plasmid phrpA was used to measure the effects of these compounds on hrpA expression. The reporter plasmid phrpA encodes a transcriptional fusion of the hrpA promoter controlling expression of green fluorescent protein (gfp). 50 μL of bacterial suspension of D. dadantii 3937 carrying the hrpA reporter (optical density at 600 nm OD600=1.0) was used as the initial inoculum and added to 5 mL of MM or MM supplemented with 100 μM of one of the compounds. The expression level of hrpA of these bacterial cells was measured by measuring GFP intensity of gated populations of the bacterial cells by flow cytometry and analyzed with Cell Quest software (BD Biosciences, San Jose, Calif.). The fluorescence intensities were an average GFP fluorescence intensity of total bacterial cells. Compounds were assayed two different times (12 and 24 h of bacterial growth) with T3SS minimal media (MM) as the control treatment for each set of experiment. Values presented in Table 14 are mean fluorescence intensity of GFP, representative of two experiments, presented as the average of three replicates with standard deviation (SD).

hrpA promoter (T3SS) [2] = assay: hrpA promoter-probe phrpA in Erwinia amylovora 273, flow cytometry; type: cell-based; details: Ea273 (phrpA), HIM + 100 μM compound
Description: Wild-type Erwinia amylovora 273 was used in this study. The promoter-probe plasmid phrpA was constructed as follows. The hrpA promoter region of Erwinia amylovora 273 was amplified and cloned into pPROBE-NT to produce PhrpA. Plasmid PhrpA was electroporated into Erwinia amylovora 273. Expression of hrpA was analyzed using a FACS Calibur flow cytometer (BD Biosciences, CA). Wild-type Erwinia amylovora 273 containing phrpA was cultured in a hrp-inducing medium (HIM) containing dimethyl sulfoxide (DMSO; solvent of chemical compounds), or HIM supplemented with 100 μM of each compound, and promoter activity was assessed at 6 h and 9 h by measuring GFP intensity using flow cytometry (Table 19).

exoS promoter (T3SS) = assay: exoS promoter-gfp reporter pATexoS, flow cytometry; type: cell-based, P. aeruginosa PA01; details: for effect on exoS promoter activity, in words: screening for T3SS inhibitors; for Fraction of untreated control (exoS expression): structure-activity table, concentration not given
Description: To identify T3SS inhibitors of PA01, a promoter-probe vector pPROBE-AT containing the promoterless green fluorescent protein (gfp) gene was used to construct an exoS promoter-gfp plasmid reporter, pATexoS. PA01 containing pATexoS was cultured in T3SS-inducing medium containing dimethyl sulfoxide (DMSO; solvent of chemical compounds), or supplemented with 250 μM of each compound, and promoter activity was assessed at 6 h by measuring GFP intensity using flow cytometry. 101 compounds (58 synthesized and 43 commercially available) were screened. Compounds 027, 032, 101, and 149 repressed exoS expression at the final concentration of 250 μM by at least one standard deviation below the sample average (Z score≦−1) (FIG. 37 A-E). Z score (or standard score) indicates how many standard deviations an observation or datum is above or below the mean [z=(x−μ)/σ, where x is a raw score to be standardized, μ is the mean of the population, and σ is the standard deviation of the population].
To determine the effective concentration of compounds, the dose-dependent effect of potential inhibitors on exoS expression and bacterial growth were tested. P. aeruginosa cells carrying pATexoS were pre-cultured in LB supplemented with 200 mM NaCl and transferred to fresh LB with 200 mM NaCl, 10 mM NTA, and various concentrations of compounds (20, 50, 100, and 250 μM) or DMSO for 6 h. […] At 50 μM dosage, both 027 and 101 inhibited exoS expression at similar levels, and this inhibitory effect increased as compound concentration increased (FIG. 38A and Table 17). […] These inhibitions/inductions of exoS expression are caused by the shifting bacterial population between low-state expression cells and high-state expression cells (FIG. 40).

SMILES | mean fluorescence intensity of GFP, hrpA expression (hrpA promoter (T3SS) [1]; 12 h) | mean fluorescence intensity of GFP, hrpA expression (hrpA promoter (T3SS) [1]; 24 h) | Avg MFI ± SD, hrpA expression (hrpA promoter (T3SS) [2]; 6 h) | Avg MFI ± SD, hrpA expression (hrpA promoter (T3SS) [2]; 9 h) | inhibitory activity on T3SS gene (hrpA) expression, in words (hrpA promoter (T3SS) [1]) | minimal effective concentration (hrpA promoter (T3SS) [1]) [µM] | Mean Fluorescence Intensity of GFP (hrpA, phrpA) (hrpA promoter (T3SS) [1]; Trial 2, MM supplemented with compound at 100 μM) | effect on exoS promoter activity, in words (exoS promoter (T3SS)) | Fraction of untreated control (exoS expression) (exoS promoter (T3SS))
CN(C)c1ccc(/C=C/C(=O)O)cc1 [Compound 112, trans-4-Dimethylaminocinnamic acid] | 23.8 ± 4.3 | 60.7 ± 6.4 | 87.0 ± 4.0 | 37.3 ± 3.7 |  |  |  |  | 
O=C(O)/C=C/c1ccc(C(F)(F)F)cc1 [Compound 113, trans-4-Trifluoromethylcinnamic acid] | 24.4 ± 0.9 | 68.5 ± 5.7 | 84.2 ± 7.5 | 97.4 ± 23.6 | inactive | 100 |  |  | 
CCOP(=O)(/C=C/c1ccc(O)cc1)OCC [Compound 114, Diethyl trans-2-(4-hydroxyphenyl)-vinylphosphonate] | 55.4 ± 1.0 | 76.5 ± 5.6 | 495.8 ± 14.2 | 661.2 ± 134.3 | did not exhibit any activity |  |  |  | 
O=P(O)(O)/C=C/c1ccc(O)cc1 [Compound 115, trans-2-(4-Hydroxyphenyl)-vinylphosphonic acid] | 57.9 ± 1.6 | 79.6 ± 3.3 | 442.4 ± 2.3 | 553.3 ± 32.7 | did not exhibit any activity |  |  |  | 
O=C1c2ccccc2C(=O)N1C/C=C/c1ccc(O)cc1 [Compound 116, N-(para-Coumaryl)phthalimide] | 24.3 ± 1.5 | 39.3 ± 3.5 | 889.1 ± 61.8 | 1466.4 ± 17.8 | showed inhibitory effect; also recorded: moderated inhibitory activity | 100 | 27.0 ± 2.1 |  | 
NC/C=C/c1ccc(O)cc1 [Compound 117, para-Coumarylamine] | 49.8 ± 1.6 | 73.1 ± 2.0 | 452.6 ± 9.5 | 547.9 ± 112.4 | did not show any inhibitory activity |  |  |  | 
COc1ccc(/C=C/CN2C(=O)c3ccccc3C2=O)cc1 [Compound 118, N-(4-Methoxycinnamyl)phthalimide] | 59.0 ± 0.4 | 83.8 ± 1.7 | 361.3 ± 28.6 | 520.4 ± 16.2 |  |  |  |  | 
COc1ccc(/C=C/CN)cc1 [Compound 119, trans-4-Methoxycinnamylamine] | 47.8 ± 3.2 | 68.2 ± 10.4 | 208.6 ± 18.6 | 232.9 ± 44.4 | did not show any inhibitory activity |  |  |  | 
CCOS(=O)(=O)/C=C/c1ccc(OC)cc1 [Compound 120, Ethyl trans-2-(4-methoxyphenyl)-ethenylsulfonate] | 49.9 ± 2.6 | 68.6 ± 6.0 | 371.5 ± 29.7 | 492.0 ± 37.6 | did not exhibit any activity |  |  |  | 
CCOS(=O)(=O)/C=C/c1ccc(O)cc1 [Compound 122, Ethyl trans-2-(4-hydroxyphenyl)-ethenylsulfonate] | 38.6 ± 1.8 | 60.9 ± 0.8 | 2042.8 ± 20.7 | 2900.6 ± 120.1 | did not exhibit any activity |  |  |  | 
O=C(O)/C=C/c1ccc(CO)cc1 [Compound 124, trans-4-Hydroxymethylcinnamic acid] | 44.9 ± 3.5 | 78.1 ± 3.4 | 419.8 ± 12.2 | 444.3 ± 11.4 | did not show any inhibitory activity |  |  |  | 
O=C(/C=C/c1ccccc1)NO [Compound 132, trans-Cinnamohydroxamic acid] |  |  | 145.7 ± 1.2 | 147.8 ± 4.2 |  |  |  | little or no effect on exoS promoter activity | 1.53 ± 0.19
CNC(=O)/C=C/c1ccc(O)cc1 [Compound 137, N-Methyl-4-hydroxycinnamamide] |  |  | 1064.1 ± 99.3 | 1121.1 ± 52.1 |  |  |  | little or no effect on exoS promoter activity | 0.92 ± 0.05
